Measured values: patent US9675538B2, “Anti-aging agent containing arctigenin derivative” (ROHTO Pharmaceutical Co., Ltd., priority 2012, dated 2017)

Experiments:
[1] = test system: Endothelin-1 (ET-1) production from human epidermal keratinocytes; experiment: Evaluation on production inhibition of endothelin-1 (ET-1) in UVB-irradiated keratinocytes (ELISA); format: cell-based; details: UVB 80 mJ/cm^2, supernatant 48 hours after irradiation, relative to agent-free UVB control = 100
Experimental: Human epidermal keratinocytes were inoculated into 6-well plates to give an amount of 100000 cells per well, and then the cells were cultured for 3 days until the cells turned confluent. After it was verified that the cells turned confluent, their media were each substituted with PBS (−). The individual plates were irradiated with UVB at an irradiation intensity of 80 mJ/cm^2. After the irradiation with the UVB, DMEM in which arctigenin or each of the arctigenin derivatives was dissolved was added to one of the individual plates. After 48 hours from the irradiation, the supernatant (in the one plate) was collected, and the supernatant was centrifuged at 3000 rpm for 5 minutes. Furthermore, the supernatant therein was collected to prepare specimens for ELISA. As a control, a sample was used which was obtained by collecting a supernatant of an agent-free plate irradiated with UVB irradiation. A device used for measuring ET-1 was an Endthelin-1 Human EIA kit (manufactured by Assay Designs, Inc.). […] In each of FIGS. 1 to 3 and FIGS. 6 to 8, one of its vertical axes represents a relative value of each of the specimens when the ET-1 production amount of the control was regarded as 100. In each of FIGS. 1 to 3 and FIGS. 6 to 8, its graph line represents the respective cell survival rates (of the specimens) when the value of the control was regarded as 100%.

[2] = test system: tyrosinase (originating from mushroom); experiment: Tyrosinase inhibiting activity measurement; format: biochemical; details: test concentration 0.01%, compared with arctigenin
Experimental: To each well of a 96-well plate were added 1 μL of a 1 w/w % of each of the samples (test concentration: 0.01%) that was dissolved in DMSO, 20 μL of a 400 U/mL of a tyrosinase solution (originating from mushroom), and 79 μL of distilled water. Thereto were added a reaction solution (0.1 mg/mL L-tyrosine solution (Wako Pure Chemical Industries, Ltd.)) and 100 μL of a 1.3-mM copper sulfate pentahydrate solution (Wako Pure Chemical Industries, Ltd.)/a 60-mM phosphate buffer (pH: 6.0). The resultant was incubated at 37° C. for one hour. Thereafter, the absorbance of the sample was measured at 640 nm. This was used as a measured value (testing sample measured value or control measured value). The tyrosinase inhibiting activity (%)=(the absorbance of each of the samples/the absorbance of the control)×100

[3] = target: T1, elastase (derived from human leukocyte) (Homo sapiens, UniProt P08246); experiment: Elastase activity measurement; format: biochemical; details: compared with arctigenin; 37° C., 2 hours, absorbance at 405 nm
T1 construct: elastase (derived from human leukocyte); from tissue; host or cells: human leukocyte
T1 sequence (P08246 30-267): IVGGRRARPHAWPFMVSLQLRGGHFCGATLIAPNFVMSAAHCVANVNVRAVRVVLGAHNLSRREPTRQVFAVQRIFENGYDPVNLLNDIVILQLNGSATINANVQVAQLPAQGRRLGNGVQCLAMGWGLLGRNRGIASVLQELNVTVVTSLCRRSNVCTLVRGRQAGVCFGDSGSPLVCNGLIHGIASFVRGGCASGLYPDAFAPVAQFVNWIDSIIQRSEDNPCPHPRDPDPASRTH
Experimental: Into a 96-well plate were added 1 μL of each of the samples that was dissolved in DMSO, and 100 μL of elastase (derived from human leukocyte) adjusted to 10 μg/mL. Furthermore, to each of the wells was added to 50 μL of a substrate solution (Suc-(Ala)3-pNa) adjusted to 5 mM. A tris-HCL buffer (pH: 8.0) was used to adjust the final volume thereof to 200 μL. Under a condition at 37° C., the plate was heated for 2 hours. The absorbance of the sample at 405 nm was used as an index of the elastase activity, and the elastase inhibiting activity thereof was calculated in accordance with the following equation: The elastase inhibiting activity (%)=(the absorbance of each of the samples/the absorbance of the control)×100

[4] = test system: B16F10 melanoma cells; experiment: Melanin production inhibition test using B16; format: cell-based; details: 0.1% (w/v), 72 hours, compared with arctigenin, n=3
Experimental: After 24 hours, the culture solution was removed. […] Furthermore, the cells were cultured for 72 hours.
The absorbance thereof was measured at 475 nm.

Row | tyrosinase inhibiting capability [2] | Compound | inhibition of the production of ET-1 [1] | elastase inhibiting capability [3] | inhibition of the production of melanin per living cell [4]
1 | no tyrosinase inhibiting capability | Palmitate Arctigenin [Comparative Example 1] | does not significantly inhibit the production of ET-1 |  | 
2 |  | Arctigenin Propionate [Example 2] |  | far stronger elastase inhibiting capability than arctigenin | more significantly inhibited the production of melanin per living cell than arctigenin
3 |  | COc1ccc(C[C@H]2COC(=O)[C@@H]2Cc2ccc(OC(C)=O)c(OC)c2)cc1OC [Example 1, Acetoxyarctigenin] |  | far stronger elastase inhibiting capability than arctigenin | 
